| SMILES | melting point |
| --- | --- |
| COC(=O)c1nnn(-c2cc(C(=O)Nc3cc(C(C)(C)C)cc(NS(C)(=O)=O)c3OC)ccc2C)c1N [Example 9, 5-amino-1-[5-(5-tert-butyl-3-methanesulfonylamino-2-methoxy-phenylcarbamoyl)-2-methyl-phenyl]-1H-1,2,3-triazole-4-carboxylic acid methyl ester] | 204 to 205 °C |
| COC(=O)c1cn(-c2cc(C(=O)Nc3cc(C(C)(C)C)cc(NS(C)(=O)=O)c3OC)ccc2C)nn1 [Example 1, 1-[5-(5-tert-butyl-3-methanesulfonylamino-2-methoxy-phenylcarbamoyl)-2-methyl-phenyl]-1H-1,2,3-triazole-4-carboxylic acid methyl ester] | 198 °C |
| COC(=O)c1cn(-c2cc(C(=O)Nc3cc(C(C)(C)C)cc(NS(C)(=O)=O)c3OC)ccc2Cl)nn1 [Example 8, 1-[5-(5-tert-butyl-3-methanesulfonylamino-2-methoxyphenyl-carbamoyl)-2-chloro-phenyl]-1H-1,2,3-triazole-4-carboxylic acid methyl ester] | 251 to 252 °C (dec.) |
| COC(=O)c1cn(-c2cc(C(=O)Nc3cc(C(C)(C)C)cc(NS(C)(=O)=O)c3OC)cc(C)c2C)nn1 [Example 16, 1-[5-(5-tert-butyl-3-methanesulfonylamino-2-methoxy-phenylcarbamoyl)-2,3-dimethyl-phenyl]-1H-1,2,3-triazole-4-carboxylic acid methyl ester] | 199 °C |

Results, then the compound that gave them:

| melting point | SMILES |
| --- | --- |
| 189 to 193 °C | COc1c(NC(=O)c2ccc(C)c(-n3nnc(C(=O)NCC(C)(C)C)c3N)c2)cc(C(C)(C)C)cc1NS(C)(=O)=O [Example 68, 5-amino-1-[5-(5-tert-butyl-3-methanesulfonylamino-2-methoxy-phenylcarbamoyl)-2-methyl-phenyl]-1H-1,2,3-triazole-4-carboxylic acid (2,2-dimethyl-propyl)-amide] |
| > 250 °C | COc1c(NC(=O)c2ccc(C)c(-n3cc(C(N)=O)nn3)c2)cc(C(C)(C)C)cc1NS(C)(=O)=O [Example 66, 1-[5-(5-tert-butyl-3-methanesulfonylamino-2-methoxyphenyl-carbamoyl)-2-methyl-phenyl]-1H-1,2,3-triazole-4-carboxylic acid amide] |
| 206 to 209 °C (dec.) | COc1c(NC(=O)c2cc(C)c(C)c(-n3cc(C(=O)NCCN4CCOCC4)nn3)c2)cc(C(C)(C)C)cc1NS(C)(=O)=O [Example 28, 1-[5-(5-tert-butyl-3-methanesulfonylamino-2-methoxy-phenylcarbamoyl)-2,3-dimethyl-phenyl]-1H-1,2,3-triazole-4-carboxylic acid (2-morpholin-4-yl-ethyl)-amide] |
| 205 to 207 °C | COc1c(NC(=O)c2ccc(C)c(-n3cc(C(=O)NCc4ccccc4)nn3)c2)cc(C(C)(C)C)cc1NS(C)(=O)=O [Example 24, 1-[5-(5-tert-butyl-3-methanesulfonylamino-2-methoxy-phenylcarbamoyl)-2-methyl-phenyl]-1H-1,2,3-triazole-4-carboxylic acid benzylamide] |

From patent US7569568B2, “Cytokine inhibitors” (Boehringer Ingelheim Pharmaceuticals, Inc., priority 2002, dated 2009)
